Assay results: ChEMBL document CHEMBL5608141, “Identification of compartment-specific drug sensitivities in CRC organoid-stroma co-cultures” (2024)

Tests used:
Assay type in all cases: functional, Homo sapiens
Set-up in all cases: dose or concentration left out as unconfirmed
[1] = test system: Colon cancer organoid; assay: Identification of compartment-specific drug sensitivities in O20 CRC organoid-stroma F20 CAF co-cultures. Organoid is transduced with Lucferase2-P2A-EGFP lentivirus, fibroblast with Renilla-dsRed lentivirus. Dual-Glo Luciferase assay is used to report viability data.
[2] = test system: Colon cancer organoid; assay: Identification of compartment-specific drug sensitivities in O14 CRC organoid-stroma F14 CAF co-cultures. Organoid is transduced with Lucferase2-P2A-EGFP lentivirus, fibroblast with Renilla-dsRed lentivirus. Dual-Glo Luciferase assay is used to report viability data.
[3] = test system: Colon cancer organoid; assay: Identification of compartment-specific drug sensitivities in O06 CRC organoid-stroma F06 CAF co-cultures. Organoid is transduced with Lucferase2-P2A-EGFP lentivirus, fibroblast with Renilla-dsRed lentivirus. Dual-Glo Luciferase assay is used to report viability data.
[4] = Transduced with Lucferase2-P2A-EGFP lentivirus
[5] = Transduced with Renilla-dsRed lentivirus

SMILES	Cell Viability [1, 4] [%]	Cell Viability [1, 5] [%]	Cell Viability [2, 4] [%]	Cell Viability [2, 5] [%]	Cell Viability [3, 4] [%]	Cell Viability [3, 5] [%]
CNC(=O)c1ccccc1Nc1cc(Nc2ccc(N3CCOCC3)cc2OC)ncc1C(F)(F)F [VS-4718]	13.9942	72.4438	18.7172	41.7282	52.8737	57.2971
Cc1cc2c(-c3ccco3)cnc(N[C@H]3CCN(C)C[C@@H]3C(=O)NC3CCCCC3)c2[nH]c1=O [GSK791]	101.663	116.18	100.549	110.493	113.813	153.556
Cl.O=C([C@@H](Cc1cccc(C(F)(F)F)c1)NS(=O)(=O)c1cc(F)c2c(c1)CCNC2)N1CCCC1	153.218	150.248	117.922	108.808	84.043	115.078
CN1CCN(C(=O)C(C)(C)c2ccc(C(=O)Nc3cn4cc(-c5ccncc5)ccc4n3)cc2)CC1 [T3-CLK]	17.3495	291.942	20.1131	93.3356	27.6026	129.967
CNc1nc(Nc2cnn([C@H]3CCN(C4COC4)C[C@@H]3F)c2Cl)ncc1C(F)(F)F	197.594	86.9942	109.423	94.4968	94.4056	87.0484
Cc1ccc2nc(CNCCCOc3ccccc3)cc(O)c2c1 [UCSF924]	115.834	125.381	102.025	95.7371	107.729	156.395
COc1c(OCCCN2CCOCC2)ccc2c1N=C(NC(=O)c1cnc(N)nc1)N1CCN=C21 [COPANLISIB]	2.299	117.524	8.823	38.6713	1.487	40.0213
CC[C@@H]1CN(C(=O)NCC(F)(F)F)C[C@@H]1c1cnc2cnc3[nH]ccc3n12 [UPADACITINIB]	123.879	83.5298	147.848	94.1248	104.182	86.3482
CCOc1cc2ncc(C#N)c(Nc3ccc(OCc4cccc(F)c4)c(Cl)c3)c2cc1NC(=O)/C=C/CN(C)C [HKI-357]	50.6947	47.1207	38.7389	28.7857	16.8896	39.6819
CCn1c(-c2nc3cc(C(=O)N4CCCC(N)C4)ccc3n2C)cc2ccccc21.Cl (stereo unspecified)	133.825	136.72	132.628	112.241	115.054	117.733
C[C@@H](Oc1cc(-n2cnc3ccc(CN4CCN(C)CC4)cc32)sc1C(N)=O)c1ccccc1C(F)(F)F [GSK-461364]	35.9092	141.481	14.2355	96.4779	8.2073	127.3
c1ccc2oc(-c3csc(C4CCN(Cc5nc6ncccc6[nH]5)CC4)n3)cc2c1	55.8704	105.216	115.362	96.8387	118.221	124.83
COCCN1CCC(c2cc(CN(C)C(=O)c3cccc(Oc4ccccc4)c3)ccn2)CC1	94.6976	115.605	131.353	104.266	91.2389	131.922
CC(C)Oc1ccc(-c2c[nH]cc2CN(C)CCN)cc1	47.8011	252.195	53.8658	109.482	47.5822	178.793
Cn1cc(Cl)c2c(Oc3c(F)cc(Nc4cc(Cl)nc(N)n4)cc3F)ccnc21 [BAY-4900]	91.1614	109.2	86.5863	82.0192	121.536	149.241
CN(C)[C@@H]1CCN(c2cc(-c3ccccc3)nc3ccnn23)C1 [(R)-ZINC-3573]	97.984	99.7993	83.9602	82.5117	122.992	121.371
